From ChEMBL document CHEMBL1131037, “Structure-based design, synthesis, and biological evaluation of irreversible human rhinovirus 3C protease inhibitors. 2. Peptide structure-activity studies” (J Med Chem, 1998)

Columns and labels:
[1] = test system: rhinovirus B14; assay: Antiviral activity against HRV-14 in cell culture; assay type: functional, organism-based; details: Rhinovirus B
[2] = target: T1, Human rhinovirus A protease (Human rhinovirus sp.) (UniProt Q4U254); assay: (§1) Binding affinity on human Rhinovirus 3C protease (rhinovirus serotype 2)
T1 sequence (whole entry): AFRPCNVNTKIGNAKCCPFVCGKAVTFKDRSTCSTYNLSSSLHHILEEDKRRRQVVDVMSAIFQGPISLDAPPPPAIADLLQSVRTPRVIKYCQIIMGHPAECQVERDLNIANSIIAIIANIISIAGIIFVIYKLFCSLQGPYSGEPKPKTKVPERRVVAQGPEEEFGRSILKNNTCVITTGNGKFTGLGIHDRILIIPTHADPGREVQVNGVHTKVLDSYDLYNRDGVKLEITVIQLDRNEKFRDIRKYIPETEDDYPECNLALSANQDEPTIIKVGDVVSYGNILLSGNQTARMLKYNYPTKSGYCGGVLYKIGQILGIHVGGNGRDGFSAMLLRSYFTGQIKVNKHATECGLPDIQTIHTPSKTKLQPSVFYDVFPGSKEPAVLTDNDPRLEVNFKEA

[3] = target: T1, Human rhinovirus A protease (Human rhinovirus sp.); assay: Binding affinity on human Rhinovirus 3C protease (rhinovirus serotype 16)
[4] = test system: HeLa; assay: Compound was tested for antiviral activity against HRV-2 in cell culture; assay type: functional, cell-based; details: Homo sapiens
[5] = test system: rhinovirus B14; assay: Cytotoxic activity against HRV-14 in cell culture; assay type: functional, rhinovirus 14; details: Rhinovirus B
[6] = target: T1, Human rhinovirus A protease (Human rhinovirus sp.); assay: Binding affinity on human Rhinovirus 3C protease (rhinovirus serotype 14)
[7] = target: T1, Human rhinovirus A protease (Human rhinovirus sp.); assay: as §1; assay type: functional
[8] = target: T1, Human rhinovirus A protease (Human rhinovirus sp.); assay: Binding affinity on human Rhinovirus 3C protease (rhinovirus serotype 14); Slow

SMILES | EC50 [1] | K obs / 1 [2] | K obs / 1 [3] | EC50 [4] | CC50 [5] | K obs / 1 [6] | K obs / 1 [7] | K obs / 1 [8]
CCOC(=O)/C=C/[C@H](CCC(N)=O)NC(=O)[C@H](Cc1ccc(OC)cc1)NC(=O)[C@H](CC(C)C)NC(=O)OCc1ccccc1 | 1.7 µM | 1100 M⁻¹ s⁻¹ | 3400 M⁻¹ s⁻¹ | 14 µM | > 320 µM | 29000 M⁻¹ s⁻¹ |  | 
CCOC(=O)/C=C/[C@H](CCC(N)=O)NC(=O)[C@H](Cc1ccc(C)cc1)NC(=O)[C@H](CC(C)C)NC(=O)OCc1ccccc1 | 0.18 µM | 1400 M⁻¹ s⁻¹ | 5300 M⁻¹ s⁻¹ |  | > 320 µM | 59400 M⁻¹ s⁻¹ |  | 
CCOC(=O)/C=C/[C@H](CCC(N)=O)NC(=O)[C@H](Cc1ccc(F)cc1)NC(=O)[C@H](CC(C)C)NC(=O)OCc1ccccc1 | 1.8 µM | 2400 M⁻¹ s⁻¹ | 9200 M⁻¹ s⁻¹ | 5.6 µM | > 320 µM | 46000 M⁻¹ s⁻¹ |  | 
CCOC(=O)/C=C/[C@H](CCC(N)=O)NC(=O)[C@H](CC1CCCCC1)NC(=O)[C@H](CC(C)C)NC(=O)OCc1ccccc1 | 1.9 µM |  | 3500 M⁻¹ s⁻¹ |  | > 320 µM | 16300 M⁻¹ s⁻¹ | 700 M⁻¹ s⁻¹ | 
CCOC(=O)/C=C/[C@H](CCC(N)=O)NC(=O)[C@H](Cc1ccccc1)NC(=O)[C@H](CC(C)C)NC(=O)SCc1ccccc1 | 0.27 µM | 28400 M⁻¹ s⁻¹ | 75000 M⁻¹ s⁻¹ | 1.9 µM | 320 µM | 280000 M⁻¹ s⁻¹ |  | 
CCC[C@H](NC(=O)[C@H](CC(C)C)NC(=O)OCc1ccccc1)C(=O)N[C@H](/C=C/C(=O)OCC)CCC(N)=O | 5 µM | 600 M⁻¹ s⁻¹ | 1200 M⁻¹ s⁻¹ |  | > 320 µM | 2300 M⁻¹ s⁻¹ |  | 
CCOC(=O)/C=C/[C@H](CCC(N)=O)NC(=O)[C@H](Cc1ccc(CCO)cc1)NC(=O)[C@H](CC(C)C)NC(=O)OCc1ccccc1 | 3.5 µM | 700 M⁻¹ s⁻¹ | 1300 M⁻¹ s⁻¹ |  | > 320 µM | 43100 M⁻¹ s⁻¹ |  | 
CCOC(=O)/C=C/[C@H](CCC(N)=O)NC(=O)[C@H](Cc1cccs1)NC(=O)[C@H](CC(C)C)NC(=O)OCc1ccccc1 | 0.56 µM | 1800 M⁻¹ s⁻¹ | 4500 M⁻¹ s⁻¹ |  | > 100 µM | 20000 M⁻¹ s⁻¹ |  | 
CCOC(=O)/C=C/[C@H](CCC(N)=O)NC(=O)[C@H](Cc1ccccc1)NC(=O)[C@H](CC(C)C)NC(=O)OC(C)(C)C | 4.5 µM |  |  |  | > 100 µM | 700 M⁻¹ s⁻¹ |  | 
CCOC(=O)/C=C/[C@H](CCC(N)=O)NC(=O)[C@H](Cc1ccccc1)NC(=O)[C@H](CC(C)C)NC(=O)OC | 1.3 µM |  |  |  | > 320 µM | 9100 M⁻¹ s⁻¹ |  | 
CCOC(=O)/C=C/[C@H](CCC(N)=O)NC(=O)[C@H](Cc1ccccc1)NC(=O)[C@H](CC(C)C)NC(=O)C1CCCC1 | 0.6 µM |  |  |  | > 320 µM | 23700 M⁻¹ s⁻¹ |  | 
CCOC(=O)/C=C/[C@H](CCC(N)=O)NC(=O)[C@H](Cc1ccccc1)NC(=O)[C@H](CCCCN)NC(=O)OCc1ccccc1 | 205 µM |  |  |  | > 320 µM | 18600 M⁻¹ s⁻¹ |  | 
CCOC(=O)/C=C/[C@H](CCC(N)=O)NC(=O)[C@H](Cc1ccccc1)NC(=O)OCc1ccccc1 | 5.6 µM |  |  |  | > 100 µM | 400 M⁻¹ s⁻¹ |  | 
CCOC(=O)/C=C/[C@H](CCC(N)=O)NC(=O)[C@H](CSCC)NC(=O)[C@H](CC(C)C)NC(=O)OCc1ccccc1 | 10 µM |  |  |  | > 320 µM | 3000 M⁻¹ s⁻¹ |  | 
CCOC(=O)/C=C/[C@H](CCC(N)=O)NC(=O)[C@H](Cc1ccccc1)NC(=O)[C@@H](NC(=O)OCc1ccccc1)C(C)(C)C | 0.32 µM |  |  |  | 178 µM | 39800 M⁻¹ s⁻¹ |  | 
CCOC(=O)/C=C/[C@H](COC(N)=O)NC(=O)[C@H](Cc1ccccc1)NC(=O)[C@H](CC(C)C)NC(=O)OCc1ccccc1 | 1.6 µM |  |  |  | > 320 µM | 5600 M⁻¹ s⁻¹ |  | 
CCOC(=O)/C=C/[C@H](CCS(C)(=O)=O)NC(=O)[C@H](Cc1ccccc1)NC(=O)[C@H](CC(C)C)NC(=O)OCc1ccccc1 | > 100 µM |  |  |  | > 100 µM | 60 M⁻¹ s⁻¹ |  | 
CCOC(=O)/C=C/[C@H](CCC(N)=O)NC(=O)[C@H](Cc1ccccc1)NC(=O)[C@H](CC(C)C)NC(=O)OCc1ccncc1 | 56 µM |  |  |  | > 320 µM | 12000 M⁻¹ s⁻¹ |  | 
CCOC(=O)/C=C/[C@H](CCC(N)=O)NC(=O)[C@H](Cc1ccc(OCC)cc1)NC(=O)[C@H](CC(C)C)NC(=O)OCc1ccccc1 | > 320 µM |  |  |  | > 320 µM | 4200 M⁻¹ s⁻¹ |  | 
CCOC(=O)/C=C/[C@H](CCC(C)O)NC(=O)[C@H](Cc1ccccc1)NC(=O)[C@H](CC(C)C)NC(=O)OCc1ccccc1 (stereo partly specified) | > 100 µM |  |  |  | > 100 µM | 0 M⁻¹ s⁻¹ |  | 
CCOC(=O)/C=C/[C@H](CCC(N)=O)NC(=O)[C@H](C)NC(=O)[C@H](CC(C)C)NC(=O)OCc1ccccc1 | 20 µM |  |  |  | > 320 µM | 1300 M⁻¹ s⁻¹ |  | 
CCOC(=O)/C=C/[C@H](CCC(N)=O)NC(=O)[C@H](Cc1ccccc1)NC(=O)[C@@H](NC(=O)OCc1ccccc1)C(C)C | 0.38 µM |  |  |  | > 320 µM | 62500 M⁻¹ s⁻¹ |  | 

SMILES | EC50 [1] | K obs / 1 [2] | K obs / 1 [3] | EC50 [4] | CC50 [5] | K obs / 1 [6] | K obs / 1 [7] | K obs / 1 [8]
CCOC(=O)/C=C/[C@H](CCC(N)=O)NC(=O)[C@H](Cc1ccccc1)NC(=O)CNC(=O)OCc1ccccc1 | 5.6 µM |  |  |  | > 320 µM | 3800 M⁻¹ s⁻¹ |  | 
CCOC(=O)/C=C/[C@H](CCC(N)=O)NC(=O)[C@H](Cc1ccccc1)NC(=O)[C@H](CC(C)C)NC(=O)SCC | 0.46 µM | 8900 M⁻¹ s⁻¹ | 20000 M⁻¹ s⁻¹ | 1 µM | > 320 µM | 91300 M⁻¹ s⁻¹ |  | 
CCOC(=O)/C=C/[C@H](CCC(N)=O)NC(=O)[C@H](Cc1ccccc1)NC(=O)[C@H](CCN1CCOCC1)NC(=O)OCc1ccccc1 | 5.1 µM |  |  |  | > 100 µM | 35000 M⁻¹ s⁻¹ |  | 
CCOC(=O)/C=C/[C@H](CCC(N)=O)NC(=O)[C@H](Cc1ccccc1)NC(=O)[C@@H](NC(=O)OCc1ccccc1)C1CCCCC1 | 1 µM |  |  |  | > 100 µM | 36200 M⁻¹ s⁻¹ |  | 
CCOC(=O)/C=C/[C@H](CCC(=O)N(C)C)NC(=O)[C@H](Cc1ccccc1)NC(=O)[C@H](CC(C)C)NC(=O)OCc1ccccc1 | 4 µM |  |  |  | > 100 µM | 60 M⁻¹ s⁻¹ |  | 
CCOC(=O)/C=C/[C@H](CCC(N)=O)NC(=O)[C@H](Cc1ccccc1)NC(=O)[C@H](CSCc1ccccc1)NC(=O)OCc1ccccc1 | 0.2 µM |  |  |  | > 100 µM | 97000 M⁻¹ s⁻¹ |  | 
CCOC(=O)/C=C/[C@H](CCC(N)=O)NC(=O)[C@H](Cc1ccccc1)NC(=O)[C@H](CC(C)C)NC(=O)CCO | 19 µM |  |  |  | > 320 µM | 4500 M⁻¹ s⁻¹ |  | 
CCOC(=O)/C=C/[C@H](CCC(N)=O)NC(=O)[C@H](Cc1ccccc1)NC(=O)[C@H](CC(=O)O)NC(=O)OCc1ccccc1 | 2.4 µM |  |  |  | > 320 µM | 35000 M⁻¹ s⁻¹ |  | 
CCOC(=O)/C=C/[C@H](CCC(N)=O)NC(=O)CNC(=O)[C@H](CC(C)C)NC(=O)OCc1ccccc1 | 141 µM |  |  |  | > 320 µM |  |  | Slow
CCOC(=O)/C=C/[C@H](CCC(N)=O)NC(=O)[C@H](CC(C)C)NC(=O)[C@H](CC(C)C)NC(=O)OCc1ccccc1 | 5.4 µM |  |  |  | > 320 µM | 2300 M⁻¹ s⁻¹ |  | 
CCOC(=O)/C=C/[C@H](CCC(N)=O)NC(=O)[C@H](Cc1ccccc1)NC(=O)[C@H](CC(C)C)NC(=O)N(C)Cc1ccccc1 | 5.6 µM |  |  |  | > 100 µM | 3200 M⁻¹ s⁻¹ |  | 
CCOC(=O)/C=C/[C@H](CCC(N)=O)NC(=O)[C@H](Cc1nccn1C)NC(=O)[C@H](CC(C)C)NC(=O)OCc1ccccc1 | 10 µM |  |  |  | > 320 µM | 8900 M⁻¹ s⁻¹ |  | 
CCOC(=O)/C=C/[C@H](CCC(N)=O)NC(=O)[C@H](Cc1ccccc1)NC(=O)[C@H](CC(C)C)NC(=O)c1ccccc1 | 5.2 µM |  |  |  | > 320 µM | 9600 M⁻¹ s⁻¹ |  | 
CCOC(=O)/C=C/[C@H](CCC(N)=O)NC(=O)[C@H](Cc1ccccc1)NC(=O)[C@H](CO)NC(=O)OCc1ccccc1 | 1.8 µM |  |  |  | > 320 µM | 39900 M⁻¹ s⁻¹ |  | 
CCOC(=O)/C=C/[C@H](CCC(N)=O)NC(=O)[C@H](CC)NC(=O)[C@H](CC(C)C)NC(=O)OCc1ccccc1 | 6 µM |  |  |  | > 320 µM | 4500 M⁻¹ s⁻¹ |  | 
CCOC(=O)/C=C/[C@H](CCC(N)=O)NC(=O)[C@H](Cc1ccc(O)cc1)NC(=O)[C@H](CC(C)C)NC(=O)OCc1ccccc1 | 5.3 µM |  |  |  | > 320 µM | 11300 M⁻¹ s⁻¹ |  | 
CCOC(=O)/C=C/[C@H](CCC(N)=O)NC(=O)[C@H](Cc1ccccc1)NC(=O)[C@H](CC(C)C)NC(=O)NCc1ccccc1 | > 100 µM |  |  |  | > 100 µM | 6900 M⁻¹ s⁻¹ |  | 
CCOC(=O)/C=C/[C@H](CCC(N)=O)NC(=O)[C@H](Cc1ccc(CO)cc1)NC(=O)[C@H](CC(C)C)NC(=O)OCc1ccccc1 | 0.55 µM |  |  |  | > 320 µM | 82300 M⁻¹ s⁻¹ |  | 
CCOC(=O)/C=C/[C@H](CCC(N)=O)NC(=O)C(NC(=O)[C@H](CC(C)C)NC(=O)OCc1ccccc1)[C@H](C)O (stereo partly specified) | 56 µM |  |  |  | > 320 µM | 1800 M⁻¹ s⁻¹ |  | 
CCOC(=O)/C=C/[C@H](CCC(N)=O)NC(=O)[C@H](Cc1ncc[nH]1)NC(=O)[C@H](CC(C)C)NC(=O)OCc1ccccc1 | 27 µM |  |  |  | > 320 µM | 6800 M⁻¹ s⁻¹ |  | 
CCOC(=O)/C=C/[C@H](CCC(N)=O)NC(=O)[C@H](Cc1ccccc1)NC(=O)[C@@H](NC(=O)OCc1ccccc1)C(C)(C)O | 0.66 µM |  |  |  | > 100 µM | 98000 M⁻¹ s⁻¹ |  | 
